Series [1] has as its target γ-aminobutyric acid aminotransferase (GABA-AT) (Sus scrofa, UniProt P80147). The note with it: cited from earlier work.
Series [2] deals with patient diagnosed with Tourettes's Disorder (TD). Kind of series: Clinical observations: single patient with Tourette's Disorder treated with vigabatrin. The series is classed as in vivo, human. From the text:
The following instruments will be used to assess diagnosis and symptom severity at baseline: • a) SCID-CT. A clinician administered, semi-structured diagnostic interview specifically developed for use in clinical trials with adults • b) Yale Global Tic Severity Scale (Y-GTSS) (Leckman et al, 1989). The primary outcome measure for tic assessment is this investigator administered Global Severity score (sum of Total Tic score and TD Impairment score) on the Y-GTSS. It includes measures of tic frequency and severity and is widely used in drug efficacy trials involving TD. • c) Yale-Brown Obsessive Compulsive Scale (Y-BOCS) (Goodman et al, 1989). The Y-BOCS is a primary outcome measure of OCD symptoms and is rated by a study investigator. • d) Clinical Global Impression for Tics (Tics-CGI) (Leckman et al, 1988), for ADHD (ADHD-CGI), and for OCD (OCD-CGI) (Guy et al, 1976). Rated by the investigator. Global Improvement (1=very much improved, to 7=very much worse) scales. At intake, only the severity can be rated. In subsequent assessments, both severity and improvement will be rated. A CGI improvement of 1 (very much) or 2 (much) improved is considered to be an acceptable response to acute treatment as is a clinical severity rating of ≦3. • e) DSM-IV-TR Global Assessment of Functioning Scale (GAF) (APA DSM-IV-TR, 2000). The investigator-rated GAF ranges from 1-100, with scores over 70 indicating normal adjustment, and below 60, clinically significant impairment. • f) Hamilton Depression Scale. A clinician-rated scale used as a screening and diagnostic tool and a measure of severity of […] in adults, which has been widely used in clinical trials of young adults with MDD. • g) Hamilton Anxiety Scale. A clinician-rated scale used as a screening and diagnostic tool and a measure of severity of […] in adults, which has been widely used in clinical trials of young adults with MDD. • h) Conners Adult ADHD Rating Scale (CAARS:SL) Systematic self-report of ADHD symptoms in adults. • i) Adverse Events Form (SMURF) is completed at every visit to document all adverse events that occur during the study. • j) Demographics: Demographics and family history information are collected systematically during the Screening/Baseline Phase. • k) Vital signs, Weight and Height (pulse, blood pressure, weight, and height) will be assessed at every visit. • l) Abnormal Involuntary Movement Scale (AIMS) An investigator rated scale of abnormal involuntary movements including tardive dyskinesia. • m) Opthalmological evaluation including visual fields testing Visit 2 (Treatment Week 0):
A single patient diagnosed with Tourettes's Disorder (TD) was treated with vigabatrin for a period of about ten months. Subject is a person with a longstanding history of severe TD. Their course was characterized by typical attenuation of symptoms in late adolescence/early adulthood with an unusual, but not rare, acceleration of symptoms to lifetime peak severity in the last several years. This exacerbation occurred in temporal association with several significant life stressors. Marking the severity of their TD course was a history of fractured rib secondary to a truncal tic, inability to take public transportation, and inability to find steady work in their profession. […] They were on tetrabenazine at the time of referral to the study, but their response to this medication was limited by depressed mood symptoms and moderate fatigue.
Baseline Yale Global Tic Severity Score (YGTSS) score indicated a total motor score of 22, and a total vocal score of 17, for a total tic score (TTS) of 39 and a tic-related impairment score of 40; global severity was 79. Global Assessment of Functioning (GAF) score at baseline was 50.

The target of series [3] is neuronal GABA transporter (Mus musculus, UniProt P31648). Particulars: Ludwig et al 1999; cited from earlier work.
In series [4] the test system is brain GABA levels. The note with it: human, single dose; cited from earlier work.

The structures appear in SMILES notation. “Also recorded” adds a separate entry of the source. Where two headings read alike, the source gives them in different places.

Chain of γ-aminobutyric acid aminotransferase (GABA-AT) (P80147 29-500): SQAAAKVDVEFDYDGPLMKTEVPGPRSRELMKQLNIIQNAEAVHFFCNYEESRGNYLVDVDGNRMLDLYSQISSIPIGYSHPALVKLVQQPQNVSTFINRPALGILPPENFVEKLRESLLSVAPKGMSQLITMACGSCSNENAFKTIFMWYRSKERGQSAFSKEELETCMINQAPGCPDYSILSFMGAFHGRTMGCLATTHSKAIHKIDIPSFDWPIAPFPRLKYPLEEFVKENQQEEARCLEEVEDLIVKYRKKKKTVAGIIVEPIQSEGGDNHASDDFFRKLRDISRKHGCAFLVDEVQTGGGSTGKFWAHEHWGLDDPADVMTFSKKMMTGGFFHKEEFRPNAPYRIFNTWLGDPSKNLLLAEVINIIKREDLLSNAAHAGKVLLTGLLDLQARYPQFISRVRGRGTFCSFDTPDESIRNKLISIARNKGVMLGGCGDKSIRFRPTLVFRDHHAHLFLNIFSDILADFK

Regarding `C=C1C[C@H](C(=O)O)C[C@@H]1N` [Compound 2, (1S,3S)-3-amino-4-methylenyl-1-cyclopentanoic acid], the entries for the “GABA-AT inactivation” value in series [1] (2-mercaptoethanol added to the incubation mixture) and in series [1] (without 2-mercaptoethanol) were “no inactivation occurred” and “inactivation of GABA-AT was observed”, respectively.
As to `C=CC(N)CCC(=O)O` (stereo not drawn) [vigabatrin, γ-vinyl GABA], the “tic severity, overall clinical outcome” value in series [2] is “clinically significant and meaningful improvement in their tic severity”. Besides, the “YGTSS total tic score (TTS)” value in series [2] (GVG 2 grams, week 2, baseline TTS 39) was determined as 31; in series [2] (GVG 3 grams, week 3, baseline TTS 39) it was 27; in series [2] (GVG 3 grams, week 4, baseline TTS 39) it was 24; in series [2] (GVG 3 grams, week 5, baseline TTS 39) it was 21; in series [2] (GVG 3 grams, week 7, baseline TTS 39), 24; in series [2] (week 1, dose figure not printed ('gram'), baseline TTS 39), 29. For the same molecule, the “adverse effect” value in series [2] (GVG up to 3 grams, listed as GVG) is “minimal: tiredness and fatigue starting at 2 grams, which gradually attenuated; also recorded: mild and non-limiting adverse effect of fatigue”. In series [2] (at 7 weeks, overall, listed as GVG), the “eye exam” value was “normal, and showed no change from baseline; also recorded: unchanged and within normal limits”. Further, in series [2] (week 7, baseline GAF 50), the “Global Assessment of Functioning (GAF) score” value is on record as 65. For the same molecule, in series [3], the “inhibition of GABA uptake” value is “inhibits GABA uptake”. Also, the “brain GABA levels after administration” value in series [4] is given as “remain substantially elevated for several days”.
In the case of `N[C@@H]1C=C[C@H](C(=O)O)C1` [compound 1, (1R,4S)-4-amino-cyclopent-2-ene-1-carboxylic acid], the “specificity constant as GABA-AT substrate relative to GABA” value in series [1] is “almost five times greater than that of GABA”.

Values taken from US9254274B2, “Method of treating Tourette'S disorder with GABA-aminotransferase inactivators” (CATALYST PHARMACEUTICAL PARTNERS, priority 2012, dated 2016).
